From patent US6737383B1, “Herbicidal oxadiazolidines” (priority 1999, dated 2004)

Assays:
soybean = assay: Test B pre/postemergence soybean; type: in vivo, Glycine max
Summary of the method: (§1)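 Herbicidal effect was estimated by eye on a ten-point control scale after plants spent twelve to sixteen days in a greenhouse following soil or foliar treatment. Foliar sprays targeted plants at one to four leaves; all doses were formulated in a non-phytotoxic solvent with surfactant.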

blackgrass = assay: Test B pre/postemergence blackgrass; type: in vivo, Alopecurus myosuroides
Summary of the method: as §1

wheat = assay: Test B pre/postemergence wheat; type: in vivo, Triticum aestivum
Summary of the method: as §1

bedstraw = assay: Test B pre/postemergence bedstraw; type: in vivo, Galium aparine
Summary of the method: as §1

velvetleaf = assay: Test B pre/postemergence velvetleaf; type: in vivo, Abutilon theophrasti
Summary of the method: as §1

corn = assay: Test B pre/postemergence corn; type: in vivo, Zea mays
Summary of the method: as §1

wild oat = assay: Test B pre/postemergence wild oat; type: in vivo, Avena fatua
Summary of the method: as §1

cocklebur = assay: Test B pre/postemergence cocklebur; type: in vivo, Xanthium strumarium
Summary of the method: as §1

purple nutsedge = assay: Test B pre/postemergence purple nutsedge; type: in vivo, Cyperus rotundus; conditions: Postemergence
Summary of the method: as §1

bamyardgrass = assay: Test B flood test barnyardgrass; type: in vivo, Echinochloa crus-galli
Summary of the method: (§2)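 Read-out is a visual response score from 0 (no effect) to 10 (complete control), assigned by comparison with untreated controls. Treatment was applied at the 2-leaf stage, and plants stayed in the greenhouse for twelve to sixteen days before scoring.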

rice = assay: Test B flood test rice; type: in vivo, Oryza sativa
Summary of the method: as §2

surinam grass = assay: Test B pre/postemergence surinam grass; type: in vivo, Brachiaria decumbens
Summary of the method: as §1

duck salad = assay: Test B flood test duck salad; type: in vivo, Heteranthera limosa
Summary of the method: as §2

sugar beet = assay: Test B pre/postemergence sugar beet; type: in vivo, Beta vulgaris
Summary of the method: as §1

crabgrass = assay: Test B pre/postemergence crabgrass; type: in vivo, Digitaria sanguinalis
Summary of the method: as §1

smallflower flatsedge = assay: Test B flood test smallflower flatsedge; type: in vivo, Cyperus difformis
Summary of the method: as §2

rape = assay: Test B pre/postemergence rape; type: in vivo, Brassica napus
Summary of the method: as §1

[1] = Preemergence, Rate 62 g/ha, scale of 0 to 10 where 0 is no effect and 10 is complete control
[2] = Preemergence, Rate 125 g/ha, 0 is no effect, 10 is complete control
[3] = Preemergence, Rate 250 g/ha, scale 0 to 10, 0 is no effect, 10 is complete control
[4] = Preemergence, Rate 500 g/ha, scale of 0 to 10 where 0 is no effect and 10 is complete control
[5] = Rate 62 g/ha, Postemergence, scale of 0 to 10 where 0 is no effect and 10 is complete control
[6] = Rate 125 g/ha, Postemergence, scale 0 to 10
[7] = Rate 500 g/ha, Postemergence, scale 0 to 10
[8] = Rate 62 g/ha, headed Pre-emergence (flood test species), scale 0 to 10 (0 no effect, 10 complete control)
[9] = Rate 125 g/ha, Pre-emergence, flood test species, scale 0 to 10 where 0 is no effect and 10 is complete control
[10] = Rate 250 g/ha, Pre-emergence, flood-test species, scale 0 to 10, 0 is no effect, 10 is complete control
[11] = Rate 500 g/ha, headed Pre-emergence (flood test species), scale 0 to 10 (0 no effect, 10 complete control)

With `Cc1ccccc1-n1c(=O)on(C(=O)N(c2ccc(Cl)cc2F)C(C)C)c1=O` [Compound 195] the “Soybean plant response rating” value (soybean; [1]) was 0, the “Soybean plant response rating (0 to 10 scale)” value (soybean; [2]) was 0 and the “Soybean plant response rating” value (soybean; [3]) was 0. For the same molecule, the “Plant response rating, Soybean” value (soybean; [4]) was 0, the “Soybean plant response rating” value (soybean; [5]) was 2 and the “Soybean plant response rating” value (soybean; [6]) was 3. For the same molecule, the “Plant response rating (0 to 10; 0 is no effect, 10 is complete control), Soybean” value (soybean; Rate 250 g/ha, Postemergence) was 4, the “Soybean plant response rating” value (soybean; [7]) was 5 and the “Blackgrass plant response rating” value (blackgrass; [1]) was 0. For the same molecule, the “Blackgrass plant response rating (0 to 10 scale)” value (blackgrass; [2]) was 1, the “Blackgrass plant response rating” value (blackgrass; [3]) was 3 and the “Plant response rating, Blackgrass” value (blackgrass; [4]) was 6. The “Blackgrass plant response rating” value (blackgrass; [5]) was 0, the “Blackgrass plant response rating” value (blackgrass; [6]) was 3 and the “Plant response rating (0 to 10; 0 is no effect, 10 is complete control), Blackgrass” value (blackgrass; Rate 250 g/ha, Postemergence) was 5. For the same molecule, the “Blackgrass plant response rating” value (blackgrass; [7]) was 6, the “Wheat plant response rating” value (wheat; [1]) was 0 and the “Wheat plant response rating” value (wheat; [3]) was 0. The “Plant response rating, Wheat” value (wheat; [4]) was 0, the “Wheat plant response rating” value (wheat; [5]) was 0 and the “Wheat plant response rating” value (wheat; [6]) was 0. For the same molecule, the “Plant response rating (0 to 10; 0 is no effect, 10 is complete control), Wheat” value (wheat; Rate 250 g/ha, Postemergence) was 0, the “Bedstraw plant response rating” value (bedstraw; [1]) was 0 and the “Bedstraw plant response rating (0 to 10 scale)” value (bedstraw; [2]) was 0. The “Bedstraw plant response rating” value (bedstraw; [3]) was 0, the “Plant response rating, Bedstraw” value (bedstraw; [4]) was 2 and the “Bedstraw plant response rating” value (bedstraw; [5]) was 2. For the same molecule, the “Bedstraw plant response rating” value (bedstraw; [6]) was 2, the “Bedstraw plant response rating” value (bedstraw; [7]) was 7 and the “Velvetleaf plant response rating” value (velvetleaf; [1]) was 0. For the same molecule, the “Velvetleaf plant response rating” value (velvetleaf; [3]) was 0, the “Plant response rating, Velvetleaf” value (velvetleaf; [4]) was 0 and the “Velvetleaf plant response rating” value (velvetleaf; [5]) was 0. For the same molecule, the “Velvetleaf plant response rating” value (velvetleaf; [6]) was 0, the “Plant response rating (0 to 10; 0 is no effect, 10 is complete control), Velvetleaf” value (velvetleaf; Rate 250 g/ha, Postemergence) was 2 and the “Corn plant response rating” value (corn; [1]) was 0. For the same molecule, the “Corn plant response rating (0 to 10 scale)” value (corn; [2]) was 0, the “Corn plant response rating” value (corn; [3]) was 0 and the “Plant response rating, Corn” value (corn; [4]) was 0. The “Corn plant response rating” value (corn; [5]) was 0, the “Corn plant response rating” value (corn; [6]) was 0 and the “Plant response rating (0 to 10; 0 is no effect, 10 is complete control), Corn” value (corn; Rate 250 g/ha, Postemergence) was 0. For the same molecule, the “Corn plant response rating” value (corn; [7]) was 0, the “Wild oats plant response rating” value (wild oat; [1]) was 0 and the “Wild oats plant response rating” value (wild oat; [3]) was 0. The “Plant response rating, Wild oats” value (wild oat; [4]) was 4, the “Wild oats plant response rating” value (wild oat; [5]) was 0 and the “Wild oats plant response rating” value (wild oat; [6]) was 0. For the same molecule, the “Plant response rating (0 to 10; 0 is no effect, 10 is complete control), Wild oats” value (wild oat; Rate 250 g/ha, Postemergence) was 0, the “Cocklebur plant response rating” value (cocklebur; [1]) was 0 and the “Cocklebur plant response rating (0 to 10 scale)” value (cocklebur; [2]) was 0. For the same molecule, the “Cocklebur plant response rating” value (cocklebur; [3]) was 0, the “Plant response rating, Cocklebur” value (cocklebur; [4]) was 0 and the “Cocklebur plant response rating” value (cocklebur; [5]) was 0. The “Cocklebur plant response rating” value (cocklebur; [6]) was 2, the “Plant response rating (0 to 10; 0 is no effect, 10 is complete control), Cocklebur” value (cocklebur; Rate 250 g/ha, Postemergence) was 2 and the “Cocklebur plant response rating” value (cocklebur; [7]) was 2. For the same molecule, the “Nutsedge plant response rating” value (purple nutsedge; Rate 62 g/ha, scale of 0 to 10 where 0 is no effect and 10 is complete control) was 0, the “Nutsedge plant response rating” value (purple nutsedge; Rate 125 g/ha, scale 0 to 10) was 0 and the “Plant response rating (0 to 10; 0 is no effect, 10 is complete control), Nutsedge” value (purple nutsedge; Rate 250 g/ha) was 0. The “Nutsedge plant response rating” value (purple nutsedge; Rate 500 g/ha, scale 0 to 10) was 0, the “Barnyardgrass plant response rating” value (bamyardgrass; [8]) was 0 and the “Barnyardgrass plant response rating” value (bamyardgrass; [9]) was 0. The “Barnyardgrass plant response rating” value (bamyardgrass; [10]) was 0, the “Plant response rating, Barnyardgrass” value (bamyardgrass; [11]) was 0 and the “Rice plant response rating” value (rice; [8]) was 0. For the same molecule, the “Rice plant response rating” value (rice; [9]) was 0, the “Rice plant response rating” value (rice; [10]) was 0 and the “Plant response rating, Rice” value (rice; [11]) was 0. The “B. signalgrass plant response rating” value (surinam grass; [1]) was 0, the “B. signalgrass plant response rating (0 to 10 scale)” value (surinam grass; [2]) was 0 and the “B. signalgrass plant response rating” value (surinam grass; [3]) was 1. The “Plant response rating, B. signalgrass” value (surinam grass; [4]) was 6, the “B. signalgrass plant response rating” value (surinam grass; [5]) was 0 and the “B. signalgrass plant response rating” value (surinam grass; Rate 125 g/ha, Postemergence, scale 0 (no effect) to 10 (complete control)) was 0. For the same molecule, the “Plant response rating, B. signalgrass” value (surinam grass; Rate 250 g/ha, Postemergence, scale 0 to 10, 0 is no effect, 10 is complete control) was 0, the “B. signalgrass plant response rating” value (surinam grass; Rate 500 g/ha, Postemergence, scale 0 to 10, 0 no effect, 10 complete control) was 1 and the “Ducksalad plant response rating” value (duck salad; [8]) was 0. For the same molecule, the “Ducksalad plant response rating” value (duck salad; [9]) was 0, the “Ducksalad plant response rating” value (duck salad; [10]) was 0 and the “Plant response rating, Ducksalad” value (duck salad; [11]) was 0. The “Sugarbeets plant response rating” value (sugar beet; [1]) was 0, the “Sugarbeets plant response rating (0 to 10 scale)” value (sugar beet; [2]) was 0 and the “Sugarbeets plant response rating” value (sugar beet; [3]) was 0. The “Plant response rating, Sugarbeets” value (sugar beet; [4]) was 2, the “Sugarbeets plant response rating” value (sugar beet; [5]) was 0 and the “Sugarbeets plant response rating” value (sugar beet; [6]) was 0. The “Plant response rating (0 to 10; 0 is no effect, 10 is complete control), Sugarbeets” value (sugar beet; Rate 250 g/ha, Postemergence) was 0, the “Sugarbeets plant response rating” value (sugar beet; [7]) was 2 and the “Crabgrass plant response rating” value (crabgrass; [1]) was 3. The “Crabgrass plant response rating (0 to 10 scale)” value (crabgrass; [2]) was 4, the “Crabgrass plant response rating” value (crabgrass; [3]) was 5 and the “Plant response rating, Crabgrass” value (crabgrass; [4]) was 9. The “Crabgrass plant response rating” value (crabgrass; [5]) was 0, the “Crabgrass plant response rating” value (crabgrass; [6]) was 0 and the “Plant response rating (0 to 10; 0 is no effect, 10 is complete control), Crabgrass” value (crabgrass; Rate 250 g/ha, Postemergence) was 2. The “Crabgrass plant response rating” value (crabgrass; [7]) was 5, the “S. Flatsedge plant response rating” value (smallflower flatsedge; [8]) was 0 and the “S. Flatsedge plant response rating” value (smallflower flatsedge; [9]) was 0. For the same molecule, the “S. Flatsedge plant response rating” value (smallflower flatsedge; [10]) was 0, the “S. Flatsedge plant response rating” value (smallflower flatsedge; Rate 500 g/ha, Pre-emergence, flood test species, scale 0 to 10 (0 no effect, 10 complete control)) was 0 and the “Rape plant response rating” value (rape; [1]) was 0. For the same molecule, the “Rape plant response rating (0 to 10 scale)” value (rape; [2]) was 0, the “Rape plant response rating” value (rape; [3]) was 0 and the “Plant response rating, Rape” value (rape; [4]) was 0. For the same molecule, the “Rape plant response rating” value (rape; [5]) was 0, the “Rape plant response rating” value (rape; [6]) was 0 and the “Plant response rating (0 to 10; 0 is no effect, 10 is complete control), Rape” value (rape; Rate 250 g/ha, Postemergence) was 0. For the same molecule, the “Rape plant response rating” value (rape; [7]) was 0.
